Source: patent US11491155B2, “Salt of a pyrimido[6,1-A]isoquinolin-4-one compound” (VERONA PHARMA PLC, priority 2015, dated 2022)
Read-outs that look alike come from different tables or passages of the source.

How the values were obtained:
[1] = Physico-chemical characteristics of salt candidates: solubility in water, pH of aqueous suspension/solution, form post water maturation
[2] = Solubility of RPL554 and salts in pMDI propellant systems; format: physicochemical
Protocol: Quantitative assessment of the solubility of RPL554 and salt variants in the propellant systems of selected pMDI formulations (three replicates of each formulation) was performed. pMDIs were directly coupled to an adaptor fitted with a 0.20 μm filter unit connected, in series to a 21 G needle, which was inserted via a rubber septum, into a cooled multi-dose glass vial. A 19 G filter needle was inserted through the septum to aid evaporation of propellant from the vial. Prior to the filtration process the vial was cooled in a mixture of dry ice and acetone to ensure that the pressure within the vial was reduced in order to facilitate collection of the output from the pMDI. Ten consecutive actuations of the pMDI were fired through the filter and collected in the vial. Between actuations the canister was shaken for approximately 10 seconds. The pMDI unit was weighed before and after the filtering procedure. The filtrate was stored at room temperature and allowed to evaporate to dryness.
Samples were recovered by carefully rinsing the inside of the vials with 1 mL of recovery solution before transfer to HPLC vials for analysis. The estimated % of RPL554 solubilised within the canister was calculated from the starting mass of RPL554 within the canisters, which in turn was calculated using the theoretical molecular weight values of the RPL554 free base and salt variants shown in Table 13. The theoretical molecular weight estimates of the salts were provided by Verona.

[3] = Intrinsic dissolution of compressed tablet, pH 7.0, 37° C. (Sirius inForm); format: physicochemical; settings: pH 7.0, 0.15 M NaCl, 37° C.
Protocol: The dissolution assay (pH-dependent sample dissolution) was investigated using the Sirius inForm.
Dissolution of a compressed tablet of the compound was monitored in a pH 7.0 aqueous dissolution experiment (0.15 M NaCl) at 37° C. using UV-absorption spectroscopy in 2 hour experiments. A tablet with a diameter of 3 mm, requiring approximate weights of 10 mg was compressed under a weight of 100 kg load force. Only one face of the tablet was exposed to the dissolution medium, which contained a 0.01 M acetate/phosphate buffer system to minimise perturbation of the experimental pH from dissolution of the drug.
Stirring of the solution was continuous and at a constant rate of 100 rpm. The absorption data was converted to absolute sample weights using previously determined, pH-dependent, molar extinction coefficients. An appropriate wavelength range was chosen to ensure that spectroscopic data with an absorption value of <1.3 was analysed, avoiding erroneous dissolution results due to saturation of the UV light source.

[4] = Primary particle size analysis by laser light diffraction (Mastersizer 2000); format: physicochemical; settings: micronised, mean n=3
Protocol: A Mastersizer 2000 fitted with a Scirocco 2000 dry powder dispersion unit (Malvern Instruments Ltd, UK) was used to analyse the primary particle size of the micronised RPL554 and salt variants. The salts (50 mg) were automatically sampled via a vibrating feed control at a feeder rate of 60% and dispersed in compressed air at a pressure of 3 bar.

[5] = RPL554 content and content uniformity of 1% w/w lactose powder blends; format: physicochemical; settings: for Measured Blend Content (% Theoretical): 1% w/w RPL554 variant: lactose powder blend, expressed as RPL554 base; for **Adjusted RPL554 Content per capsule: per 20 mg capsule of 1% w/w lactose blend, adjusted for measured blend content (% theoretical), as RPL554 base
Protocol: Batches (approximately 5 g) of 1% w/w RPL554 free base or salt variants: lactose blends were prepared. In brief, the RPL554 free base or salt plus a small quantity of lactose was passed through a 38 μm sieve. The sieved material plus the remaining lactose was mixed in a glass mortar prior to transfer to a stainless steel screw cap jar and further mixing (10 minutes at 46 rpm) conducted using a Turbula blender. The composition of the dry powder blend was 0.05 g API and 4.95 g lactose.
In order to determine the content uniformity of the blends, aliquots (approx. 20 mg) of powder were sampled from each blend, accurately weighed, and diluted to volume in 10 mL volumetric flasks with diluent. The flasks were sonicated for 3 minutes before samples were transferred to HPLC vials for analysis.

[6] = Aerosol performance of DPI formulations (Cyclohaler, NGI); format: physicochemical; settings: for †Measured Mass of 1% w/w Blend Delivered per capsule / ††RPL554 Emitted (μg) per capsule (B): Cyclohaler; for †Measured Mass of 1% w/w Blend Delivered per capsule: 5 capsules containing 20 mg powder blend, mass from weight change of capsule-loaded device; for ††RPL554 Emitted (μg) per capsule (B): NGI, mass determined from HPLC analysis of recovered samples; for ††RPL554 Emitted (μg) per capsule (B) / Calculated RPL554 Content (μg) per capsule (A): as RPL554 base; for Calculated RPL554 Content (μg) per capsule (A): calculated from delivered blend mass and measured blend content
Protocol: Capsules were hand filled with 20 mg of the 1% w/w RPL554 free base or salt variants: lactose blends, i.e. 200 μg salt per capsule, the fill weight of each capsule was recorded. Due to differences in the molecular weights of the RPL554 salt forms, the amount of RPL554 emitted per actuation varied as a function of molecular weight. The formulations were prepared with no adjustment for differences in molecular weight of the salts.
The powders were delivered via the Cyclohaler® DPI (PCH Pharmachemie, BV, The Netherlands). The Cyclohaler® DPI is a low resistance device and was operated at a flow rate of 90 L/min for 2.7 seconds. The cut off diameters for the NGI collection stages were calculated for the 90 L/min flow rate using the NGI User Guide (MSP Corporation, 2008).
The ED, FPD and FPF were determined from inertial impaction tests performed following the deposition of 5 capsules of each formulation into the NGI. For each capsule tested the combined weight of the Cyclohaler® and capsule was determined before and after operation to check that the dose had been delivered. The NGI was fitted with a pre-separator for these determinations. The central cup of the pre-separator was filled with 15 mL of diluent. Following deposition, the solution was recovered in a 20 mL volumetric flask and made up to volume with diluent. RPL554 was quantitatively recovered from the device, induction port and each of the NGI collection stages with 10 mL of diluent.
The volume of diluent used for each sample was selected to ensure RPL554 concentrations were above the limit of quantitation.

[7] = Solubility of RPL554 salts in saline solutions, water and aqueous buffer solutions at 25° C. (HPLC); format: physicochemical; settings: for solubility at 24 h: thermodynamic from solid
Protocol: The behaviour of salts of RPL554 were examined under the following conditions: • Phosphate buffered to pH 3.5 in saline, 0.9% w/w at 25° C. • Acetate buffered to pH 4.5 in saline, 0.9% w/w at 25° C. • Citro-Phosphate buffered to pH 4.5 in saline, 0.9% w/w at 25° C. • Phosphate buffered to pH 6.5 in saline, 0.9% w/w at 25° C. • Saline, 0.7, 0.9 and 1.1% w/w at 25° C. • Deionised water at 25° C.
RPL554 salts and RPL554, ca 50 mg, were suspended in the various aqueous media, 1 ml, with agitation at the specified temperatures for 24 hours. The solids were isolated and dried in vacuo at 45° C. The retained filtrates were examined by HPLC.
Additional RPL554 methane sulfonate salt, ca 50 mg, was charged to the water mixtures at 25° C. and 37.5° C. in order to afford a suspension. In all other cases, suspensions were obtained.
The solubility of the RPL554 was determined by HPLC using a single point calibration and is expressed as RPL554 and not as the salt and are detailed in Table 6 and Table 7 for the various conditions utilised.

[8] = listed as benzenesulfonate salt
[9] = HFA 134a: 227: 10% Ethanol: 0.1% Tween
[10] = in HFA 134, listed as Free Base
[11] = in HFA 134 with Ethanol/Tween, listed as Free Base

Structure (SMILES): COc1cc2c(cc1OC)-c1c/c(=N\c3c(C)cc(C)cc3C)n(CCNC(N)=O)c(=O)n1CC2 [Benzenesulfonate, RPL554 benzenesulfonate]
- pH of aqueous suspension/solution ([1]; listed as Benzene sulfonic): 3.43
- solubility ([1]; water): 1470 µg/mL
- Estimated RPL554 solubilised (%) ([2]; in HFA 134 with Ethanol/Tween): 4.03%
- Estimated Solubilised RPL554 μg per 50 μL actuation ([2]; in HFA 134 with Ethanol/Tween): 6.05 µg
- Solubility RPL554 ([2]; in HFA 134 with Ethanol/Tween): 90.57 µg/g
- Mass of salt (μg) dissolved after 2 hours, Average [3, 8]: 60.1 µg
- Mass of salt (μg) dissolved after 2 hours, Test 1 [3, 8]: 50.0 µg
- Mass of salt (μg) dissolved after 2 hours, Test 2 [3, 8]: 70.1 µg
- D (0.1) (μm) [4]: 0.46 μm
- D (0.5) (μm) [4]: 1.23 μm
- D (0.9) (μm) [4]: 3.51 μm
- Measured Blend Content (% Theoretical) [5]: 89.34 % Theoretical
- **Adjusted RPL554 Content per capsule [5]: 134.22 µg
- †Measured Mass of 1% w/w Blend Delivered per capsule [6]: 20.04 mg
- ††RPL554 Emitted (μg) per capsule (B) [6]: 87.57 µg
- Calculated RPL554 Content (μg) per capsule (A) [6]: 134.49 µg
- solubility at 24 h ([7]; 0.7% w/w saline, saline or isotonic, 24 hours, read-out: Solubility as RPL554 (mg/ml) in 0.7 w/w % Saline): 2.27 mg/mL
- solubility at 24 h ([7]; 0.9% w/w saline, saline or isotonic, 24 hours, read-out: Solubility as RPL554 (mg/ml) in 0.9 w/w % Saline): 2.74 mg/mL
- solubility at 24 h ([7]; 1.1% w/w saline, saline or isotonic, 24 hours, read-out: Solubility as RPL554 (mg/ml) in 1.1 w/w % Saline): 2.94 mg/mL
- solubility at 24 h ([7]; acetate buffer in 0.9% w/w saline, pH 4.5, aqueous buffer, in saline 0.9% w/w, read-out: Solubility as RPL554 (mg/ml) in buffer solution pH 4.5, Acetate): 1.39 mg/mL
- solubility at 24 h ([7]; citro-phosphate buffer in 0.9% w/w saline, pH 4.5, aqueous buffer, in saline 0.9% w/w, read-out: Solubility as RPL554 (mg/ml) in buffer solution pH 4.5, Citro-phosphate): 1.57 mg/mL
- solubility at 24 h ([7]; phosphate buffer in 0.9% w/w saline, pH 3.5, aqueous buffer, in saline 0.9% w/w, read-out: Solubility as RPL554 (mg/ml) in buffer solution pH 3.5, Phosphate): 1.1 mg/mL
- solubility at 24 h ([7]; deionised water, 24 hours, read-out: Solubility as RPL554 (mg/ml) in Water): 2.57 mg/mL

Structure (SMILES): COc1cc2c(cc1OC)-c1c/c(=N\c3c(C)cc(C)cc3C)n(CCNC(N)=O)c(=O)n1CC2 [Naphthalene-2-sulfonate]
- Solubility as RPL554 (mg/ml) in 0.7 w/w % Saline ([7]; 24 hours): 0.17 mg/mL
- Solubility as RPL554 (mg/ml) in 0.9 w/w % Saline ([7]; 24 hours): 0.09 mg/mL
- Solubility as RPL554 (mg/ml) in 1.1 w/w % Saline ([7]; 24 hours): 0.09 mg/mL
- Solubility as RPL554 (mg/ml) in Water ([7]; deionised water, 24 hours): 0.13 mg/mL

Structure (SMILES): COc1cc2c(cc1OC)-c1c/c(=N\c3c(C)cc(C)cc3C)n(CCNC(N)=O)c(=O)n1CC2 [Phosphate, RPL554 phosphate]
- pH of aqueous suspension/solution ([1]; listed as Phosphoric): 3.08
- Solubility as RPL554 (mg/ml) in 0.7 w/w % Saline ([7]; 24 hours): 7.22 mg/mL
- Solubility as RPL554 (mg/ml) in 0.9 w/w % Saline ([7]; 24 hours): 4.78 mg/mL
- Solubility as RPL554 (mg/ml) in 1.1 w/w % Saline ([7]; 24 hours): 2.86 mg/mL
- Solubility as RPL554 (mg/ml) in Water ([7]; deionised water, 24 hours): 41.84 mg/mL

Structure (SMILES): COc1cc2c(cc1OC)-c1c/c(=N\c3c(C)cc(C)cc3C)n(CCNC(N)=O)c(=O)n1CC2 [RPL554, 9,10-dimethoxy-2-(2,4,6-trimethylphenylimino)-3-(N-carbamoyl-2-aminoethyl)-3,4,6,7-tetrahydro-2H-pyrimido[6,1-a]isoquinolin-4-one]
- Estimated Solubilised RPL554 μg per 50 μL actuation [2, 9]: 1.06 µg
- Solubility RPL554 [2, 9]: 16.11 µg/g
- Estimated RPL554 solubilised (%) ([2]; HFA 134a: 227: 10% Ethanol: 0.1% Tween, listed as Free base): 0.53%
- Solubility RPL554 (μg/g) ([2]; in HFA 134, BLQ = below limit of quantitation (0.06 μg/mL), listed as Free Base): BLQ
- Calculated RPL554 solubilised (%) [2, 10]: BLQ
- Calculated Solubilised RPL554 μg per 50 μL actuation [2, 10]: BLQ
- Estimated RPL554 solubilised (%) [2, 11]: 0.56%
- Estimated Solubilised RPL554 μg per 50 μL actuation [2, 11]: 1.12 µg
- Solubility RPL554 [2, 11]: 16.45 µg/g
- Mass of salt (μg) dissolved after 2 hours, Average ([3]; listed as free base): 13.5 µg
- Mass of salt (μg) dissolved after 2 hours, Test 1 ([3]; listed as free base): 10.0 µg
- Mass of salt (μg) dissolved after 2 hours, Test 2 ([3]; listed as free base): 17.0 µg
- D (0.1) (μm) ([4]; listed as Free base): 0.58 μm
- D (0.5) (μm) ([4]; listed as Free base): 1.37 μm
- D (0.9) (μm) ([4]; listed as Free base): 3.00 μm
- Measured Blend Content (% Theoretical) ([5]; listed as Free Base): 96.44 % Theoretical
- **Adjusted RPL554 Content per capsule ([5]; listed as Free Base): 192.87 µg
- †Measured Mass of 1% w/w Blend Delivered per capsule ([6]; listed as Free Base): 20.12 mg
- ††RPL554 Emitted (μg) per capsule (B) ([6]; listed as Free Base): 133.59 µg
- Calculated RPL554 Content (μg) per capsule (A) ([6]; listed as Free Base): 194.03 µg

Structure (SMILES): COc1cc2c(cc1OC)-c1c/c(=N\c3c(C)cc(C)cc3C)n(CCNC(N)=O)c(=O)n1CC2 [Sulfuric - ethanol solution]
- pH of aqueous suspension/solution [1]: 3.28
